Test system: NOMO1
Assay: cell viability relative to DMSO control; higher = less cytotoxic
Conditions: 48 h
Summary of the method: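 Viability values are per-plate percentages of DMSO wells, with background from cell-free wells. Library compounds in DMSO were pin-dosed, in an 11-point threefold series from 47 μM to 0.79 nM, onto NOMO1 or SEM (500 cells/well) or P12-Ichikawa (1000 cells/well) leukemia cells in 1536-well plates (5 μl). Those cells had been adapted for at least four passages in each medium, and CellTiter-Glo One luminescence was read after 48 h at 37°C.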

[1] = HPLM + 10% dialyzed FBS, 0.000781 µM
[2] = HPLM + 10% dialyzed FBS, 0.00234 µM
[3] = HPLM + 10% dialyzed FBS, 0.00702 µM
[4] = HPLM + 10% dialyzed FBS, 0.0211 µM
[5] = HPLM + 10% dialyzed FBS, 0.0632 µM
[6] = HPLM + 10% dialyzed FBS, 0.19 µM
[7] = HPLM + 10% dialyzed FBS, 0.569 µM
[8] = HPLM + 10% dialyzed FBS, 1.71 µM
[9] = HPLM + 10% dialyzed FBS, 5.12 µM
[10] = HPLM + 10% dialyzed FBS, 15.4 µM
[11] = HPLM + 10% dialyzed FBS, 46.1 µM
[12] = RPMI 5 mM glucose + 10% FBS, 0.000781 µM
[13] = RPMI 5 mM glucose + 10% FBS, 0.00234 µM
[14] = RPMI 5 mM glucose + 10% FBS, 0.00702 µM
[15] = RPMI 5 mM glucose + 10% FBS, 0.0211 µM
[16] = RPMI 5 mM glucose + 10% FBS, 0.0632 µM
[17] = RPMI 5 mM glucose + 10% FBS, 0.19 µM
[18] = RPMI 5 mM glucose + 10% FBS, 0.569 µM
[19] = RPMI 5 mM glucose + 10% FBS, 1.71 µM
[20] = RPMI 5 mM glucose + 10% FBS, 5.12 µM
[21] = RPMI 5 mM glucose + 10% FBS, 15.4 µM
[22] = RPMI 5 mM glucose + 10% FBS, 46.1 µM
[23] = RPMI 5 mM glucose + 10% dialyzed FBS, 0.000781 µM
[24] = RPMI 5 mM glucose + 10% dialyzed FBS, 0.00234 µM
[25] = RPMI 5 mM glucose + 10% dialyzed FBS, 0.00702 µM
[26] = RPMI 5 mM glucose + 10% dialyzed FBS, 0.0211 µM
[27] = RPMI 5 mM glucose + 10% dialyzed FBS, 0.0632 µM
[28] = RPMI 5 mM glucose + 10% dialyzed FBS, 0.19 µM
[29] = RPMI 5 mM glucose + 10% dialyzed FBS, 0.569 µM
[30] = RPMI 5 mM glucose + 10% dialyzed FBS, 1.71 µM
[31] = RPMI 5 mM glucose + 10% dialyzed FBS, 5.12 µM
[32] = RPMI 5 mM glucose + 10% dialyzed FBS, 15.4 µM
[33] = RPMI 5 mM glucose + 10% dialyzed FBS, 46.1 µM

SMILES | cell viability [1] [%] | cell viability [2] [%] | cell viability [3] [%] | cell viability [4] [%] | cell viability [5] [%] | cell viability [6] [%] | cell viability [7] [%] | cell viability [8] [%] | cell viability [9] [%] | cell viability [10] [%] | cell viability [11] [%] | cell viability [12] [%] | cell viability [13] [%] | cell viability [14] [%] | cell viability [15] [%] | cell viability [16] [%] | cell viability [17] [%] | cell viability [18] [%] | cell viability [19] [%] | cell viability [20] [%] | cell viability [21] [%] | cell viability [22] [%] | cell viability [23] [%] | cell viability [24] [%] | cell viability [25] [%] | cell viability [26] [%] | cell viability [27] [%] | cell viability [28] [%] | cell viability [29] [%] | cell viability [30] [%] | cell viability [31] [%] | cell viability [32] [%] | cell viability [33] [%]
CC(C)N(C[C@H]1O[C@@H](n2cnc3c(N)ncnc32)[C@H](O)[C@@H]1O)[C@H]1C[C@@H](CCc2nc3cc(C(C)(C)C)ccc3[nH]2)C1 | 96.9 | 98.5 | 111 | 109 | 110 | 109 | 113 | 79.3 | 36.1 | 65.5 | 7.55 | 84 | 92.4 | 113 | 91.5 | 91.8 | 115 | 94.9 | 113 | 99.1 | 93.3 | 9 | 74.4 | 95.6 | 97.2 | 91.8 | 95.3 | 103 | 102 | 99.9 | 86.6 | 96.1 | 6.04
Cc1c(-c2cccc3c(CCCOc4cccc5ccccc45)c(C(=O)O)n(Cc4cccnc4)c23)c(COc2ccc(N3CCN([S+](=O)([O-])N(C)C)CC3)cc2)nn1C | 88.7 | 85.4 | 83.8 | 94.1 | 108 | 86.3 | 85.9 | 74.2 | 89.2 | 73.8 | 55.4 | 92.5 | 97.3 | 80.4 | 85.7 | 87.9 | 94.7 | 90.5 | 87.8 | 74.9 | 79.3 | 85.2 | 97 | 97.1 | 92.5 | 96.1 | 95.9 | 94.1 | 86 | 76.7 | 81.4 | 84.7 | 72.5
O=C(CCc1ccc(O)cc1)c1c(O)cc(O)cc1O | 84.2 | 95.5 | 108 | 112 | 93.8 | 104 | 100 | 125 | 116 | 93 | 36.8 | 91.5 | 98.6 | 105 | 102 | 98 | 99.5 | 96.1 | 106 | 98.3 | 101 | 38.3 | 82.4 | 101 | 94.5 | 103 | 98.1 | 87.1 | 98.9 | 103 | 101 | 106 | 74.7
Cc1cc(OCCC[S+](C)(=O)[O-])cc(C)c1-c1cccc(COc2ccc3c(c2)OC[C@H]3CC(=O)O)c1 | 93.7 | 112 | 98.7 | 91.3 | 108 | 97.8 | 103 | 89.9 | 106 | 92.8 | 67.1 | 96.9 | 95 | 99.2 | 102 | 92.4 | 99.2 | 107 | 100 | 98 | 90.6 | 57.3 | 99.2 | 96.7 | 95.9 | 98.4 | 96.1 | 92.6 | 93.7 | 86.4 | 85.3 | 89.3 | 47.1
CC(C)(F)C[C@H](N[C@@H](c1ccc(-c2ccc([S+](C)(=O)[O-])cc2)cc1)C(F)(F)F)C(=O)NC1(C#N)CC1 | 91.5 | 113 | 111 | 113 | 108 | 103 | 107 | 116 | 111 | 94.6 | 89.8 | 124 | 136 | 125 | 124 | 119 | 116 | 109 | 115 | 106 | 97.5 | 102 | 105 | 125 | 117 | 121 | 103 | 108 | 112 | 109 | 101 | 101 | 92.3
COc1cc(Nc2c(C#N)cnc3cc(OCCCN4CCN(C)CC4)c(OC)cc23)c(Cl)cc1Cl | 123 | 121 | 118 | 111 | 116 | 105 | 121 | 83.6 | 52.1 | 9.63 | 7.18 | 109 | 115 | 126 | 119 | 126 | 118 | 112 | 106 | 82.4 | 13.7 | 7.22 | 103 | 105 | 112 | 113 | 116 | 114 | 112 | 120 | 85.8 | 26 | 10.6
OC1=CC2=C(C=C1)C(=O)\C(=C(O2)\C3=CC(=C(O)C=C3)O)O | 105 | 98 | 108 | 93 | 102 | 97.1 | 91.2 | 105 | 84 | 93.9 | 65.6 | 85.9 | 91.3 | 96.2 | 6.71 | 96.6 | 85 | 99.7 | 88.9 | 74.5 | 74.8 | 67.5 | 96.5 | 103 | 101 | 96.3 | 100 | 92 | 93.3 | 89.5 | 81.3 | 81.3 | 60.1
Cc1ccc([N+](=O)[O-])cc1[S+](=O)([O-])N(C)/N=C/c1cnc2ccc(Br)cn12 | 110 | 116 | 107 | 89.8 | 56.5 | 12 | 6.54 | 5.77 | 4.83 | 4.05 | 3.68 | 121 | 105 | 95.9 | 98.7 | 84.6 | 17.3 | 7.83 | 5.79 | 5.05 | 4.32 | 4.08 | 102 | 93.9 | 100 | 94.2 | 76.1 | 19.2 | 5.29 | 4.54 | 4.24 | 4 | 2.94
NC(=O)[C@H]1CCS[C@@H]2C[C@]3(CCCN3C(=O)Cc3ccc(NC(=O)COc4ccc(Cl)cc4Cl)cc3)C(=O)N12 | 111 | 138 | 123 | 134 | 139 | 123 | 102 | 36.8 | 39.9 | 42.3 | 52.3 | 107 | 129 | 121 | 131 | 138 | 131 | 119 | 103 | 26.1 | 26.6 | 38.9 | – | – | – | – | – | – | – | – | – | – | –
OC1=CC=C(C=C1)\C2=C\OC3=C(C(=CC(=C3)O)O)C2=O | 110 | 112 | 117 | 120 | 116 | 122 | 124 | 113 | 107 | 137 | 117 | 108 | 111 | 107 | 117 | 104 | 115 | 108 | 109 | 112 | 123 | 110 | 94.7 | 113 | 99.8 | 110 | 118 | 117 | 107 | 108 | 118 | 115 | 103
O=C(CS(=O)Cc1ccco1)NC/C=C\COc1cc(CN2CCCCC2)ccn1 (centres undefined) | 85 | 105 | 101 | 102 | 93.3 | 113 | 93.8 | 98.9 | 89 | 94.1 | 92.9 | 89.7 | 87.5 | 97.2 | 95.7 | 87.1 | 98.2 | 87.8 | 89.3 | 94.8 | 93.3 | 92.8 | 90 | 103 | 95 | 108 | 105 | 103 | 108 | 97.4 | 90.9 | 105 | 99.4
COc1cc([C@@H](CC(=O)O)c2ccc(C)c(CN3C[C@@H](C)Oc4ccccc4[S+]3(=O)[O-])c2)cc2nnn(C)c12 | 123 | 120 | 111 | 121 | 110 | 118 | 96.8 | 119 | 66.6 | 30.3 | 26.5 | 114 | 117 | 117 | 98.7 | 97.1 | 102 | 104 | 99.3 | 92.4 | 90.3 | 91.1 | 102 | 118 | 116 | 104 | 113 | 99.5 | 100 | 101 | 86.2 | 79.6 | 75.4
CN(C)C1=CC(=CC=C1)C\2=C\3C(=O)N(NC3=C/C(=O)N2C)C4=CC=CC=C4Cl | 113 | 109 | 127 | 116 | 120 | 105 | 60.4 | 7.34 | 5.72 | 4.4 | 5.35 | 118 | 105 | 122 | 121 | 116 | 103 | 93 | 19.7 | 5.29 | 5.8 | 5.56 | 118 | 108 | 114 | 116 | 143 | 112 | 83.4 | 28.3 | 10.1 | 7.91 | 8.18
CCc1cc2c(cc1N1CCC(N3CCOCC3)CC1)C(C)(C)c1[nH]c3cc(C#N)ccc3c1C2=O | 83.9 | 68.5 | 94.7 | 117 | 135 | 151 | 134 | 121 | 105 | 102 | 68.3 | 91.1 | 83.2 | 102 | 119 | 126 | 132 | 124 | 112 | 117 | 114 | 58.8 | 80.3 | 73.9 | 71.7 | 107 | 125 | 133 | 120 | 111 | 115 | 110 | 52.1
CC(=O)N[C@@H]1[C@@H](NC(N)=N)\C=C(/O[C@H]1[C@H](O)[C@H](O)CO)C(O)=O | 84.9 | 105 | 116 | 119 | 127 | 119 | 122 | 120 | 122 | 115 | 101 | 102 | 114 | 106 | 111 | 113 | 113 | 118 | 120 | 111 | 121 | 113 | 100 | 106 | 114 | 121 | 117 | 118 | 115 | 116 | 106 | 134 | 124

From the supplement of paper PMC11451515
